The values that follow come from US20140123342A1, “Regulation of Stomatal Apertures by Apyrases and Extracellular Nucleotides” (BOARD OF REGENTS, THE UNIVERSITY OF TEXAS SYSTEM, priority 2011, published 2014).

In one experiment the test system is NO in guard cells. Briefly: Detection and quantification of NO (DAF-2 DA fluorescence). The note with it: 10 μM, leaf epidermal tissue, after 45 min. It is filed as cell-based, Arabidopsis thaliana. Here is the method:
(§1) Detection and Quantification of H2O2 and NO: Col-0 plants were grown on soil for 2 to 4 weeks under continuous light at 21° C. Plants were placed in the dark for 24 h to ensure closure and then transferred to the light for 1 h. After 1 h in the light, mature basal leaves were excised and blended in a Waring blender on the low setting for approximately 10 s to isolate epidermal tissues, and the tissues were placed in 3 mL of 30 mM KCl, 10 mM Mes-KOH, pH 6.16 buffer in light for 2 h (Pei et al., 2000; Murata et al., 2001). DAF-2 DA and H2DCFDA were dissolved in DMSO to produce 5 mM and 10 mM stock solutions, respectively, and these were stored at −20° C. in 30 μL, aliquots. Fifty μM H2DCFDA or 15 μM DAF-2 DA was added to the medium in the dark, and after 30 min, 10 μM ABA, 200 μM ATPγS, or buffer (ATP control) was also added to the medium in the dark for 30 min. Peels were then rinsed by decanting the treatment solution and adding 3 mL fresh leaf buffer to the peels. Peels were rinsed twice as described. A peel from each of the three treatments (ABA, ATPγS and buffer) were placed on the same microscope slide and observed sequentially. A second study was staggered 30 to 45 min after the first by loading the H2DCFDA or DAF-2 DA dye to new peels 30 to 45 min after the first round of dye was added. Confocal laser scanning microscopy (CLSM) was performed with a Leica SP2 AOBS confocal microscope (Leica Microsystems, Bannockburn, Ill., USA). Laser power was set at 15%, with an excitation of 488 nm and an emission of 525 nm. A series of 0.5 μm optical sections with average intensity projection along the z axis were collected and made into one 2D image with greater focal depth. All images were obtained with the same software scanning settings including detector gain and laser intensity settings.

Another experiment relates to H2O2 in guard cells. Briefly: Detection and quantification of H2O2 (H2DCFDA fluorescence). It is filed as cell-based, Arabidopsis thaliana. The note with it: 10 μM, leaf epidermal tissue, after 30 min. The procedure: as §1

SMILES strings stand for the structures.

For the molecule `CC1=CC(=O)CC(C)(C)[C@@]1(O)/C=C/C(C)=C\C(=O)O` [ABA, abscisic acid], the “increase in DAF-2 DA fluorescence in guard cells” value in the experiment on NO in guard cells stood at 2.5 fold. For the same molecule, in the experiment with H2O2 in guard cells, the “increase in H2DCFDA fluorescence in guard cells” value was found to be 3 fold.
